The values that follow come from PubChem BioAssay AID463229 (Broad Institute, 2010).

Structures are written as SMILES. Several values for one entry are separate records, joined by “and”; a condition that tells them apart may be missing. Equal values may be shown once. Activity calls are given as the source filed them.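 How the source made its calls: active means compounds raising the signal whose fitted half-maximal concentration is at or below their top tested dose (cut at about 25 µM in these data); inconclusive means flat fit at 30 to 70% activity, or a poor fit; inactive means the rest.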

The assay has as its system INS-1E rat beta cells, no cytokines, CellTiter-Glo ATP, 48 h. Briefly: ATP level change in INS-1E without cytokines, dose response, counter-screen for beta-cell apoptosis protection project, INS-1E rat cells, ATP luminescence, cherry pick (AID 463229).
As to `CC(=O)NC(c1cccs1)c1cc([N+](=O)[O-])c2cccnc2c1O` (stereo not given), the AC50 is 10.9 µM.

Consider `C=C(C)C(=O)O[C@H]1C/C(C)=C\C(=O)/C=C(\C)[C@H](O)[C@@H]2OC(=O)C(=C)[C@@H]21`, for which the half-maximal activity concentration (AC50) is 14.5 µM.

In the case of `CCCC(=O)NC(c1ccccc1)c1ccc2cccnc2c1O` (stereo not given), the AC50 is 2.85 µM.

On to `CCn1c(-c2ccc(C)cc2)nn(CC(=O)NCCc2ccccc2)c1=S`, for which the AC50 was 7.22 µM.

On to `COc1ccc(CNCCC(c2ccc(OC(C)C)cc2)C(C)C)cc1OC` (stereo not given), for which the AC50 is 15 µM.

Turning to `COc1ccc(Cn2c(-c3ccc(C)cc3)c[n+]3ccccc23)cc1`, the AC50 is 5.23 µM.

As to `N#Cc1ccc(-c2csc(NNC(=O)c3ccc(Br)cc3)n2)cc1`, the half-maximal activity concentration (AC50) was 15.6 µM.

`COc1cc(Br)cc(/C=N/NC(=O)Cc2ccc(C(F)(F)F)cc2[N+](=O)[O-])c1O`: the AC50 is 14.7 µM.

In the case of `N=c1c2c(-c3ccccc3)c(-c3ccccc3)n(Cc3ccco3)c2ncn1CCCN1CCOCC1`, the AC50 is 16.2 µM.

As for `CN(C)CCCNc1c2ccccc2nc2ccccc12`, the half-maximal activity concentration (AC50) is 16.2 µM.

In the case of `CCOc1ccc(-n2c(-c3ccc(OC)cc3)c[n+]3c2CCCCC3)cc1`, the AC50 is 0.289 µM.

Regarding `COc1ccc(Nc2ccc3c(c2)=NC2(CCCCC2)[N+]=3[O-])cc1`, the AC50 is 7.8 µM.

For the molecule `CCCCCCCCn1ccc(=N)cc1`, the AC50 was 0.65 µM.

For the molecule `O=NN(CCc1ccncc1)c1ccc(OCc2ccccc2)cc1`, the AC50 was 8.16 µM.

Take `O=C(NNc1c(Cl)cc(Cl)cc1Cl)c1cccc([N+](=O)[O-])c1`: the AC50 was 3.08 µM.

With `CCCCNc1cc(C)nc(NCc2ccccc2)n1`, the AC50 was 8.1 µM.

Turning to `O=C(Nc1cccc(NC(=O)c2ccccc2Cl)c1)c1ccc([N+](=O)[O-])o1`, the AC50 is 7.58 µM.

For `COc1cc2cc(C(=O)N3CCOCC3)cc(-c3ccc(C)cc3)c2cc1OC`, the AC50 is 5.15 µM.

Take `CCCCCCCCCCCCCCCC[N+](C)(C)C`: the AC50 was 7.81 µM.

On to `COC1=C(Nc2ccccc2)C(=O)c2ccccc2C1=O`, for which the AC50 was 17.4 µM.

Consider `CCN(CC)S(=O)(=O)c1ccc(N/N=C/c2cc(OC)ccc2O)nc1`, for which the AC50 is 4.24 µM.

Turning to `Cc1ccc(C(C)C)c(OCc2ccc(C(=O)N/N=C/c3cccc(O)c3O)cc2)c1`, the AC50 is 7.27 µM.

`CC1(C)N=C(N)N=C(N)N1c1ccc(OCCCOc2ccccc2)c(Cl)c1`: the AC50 was 0.913 µM.

Consider `CCCCCCCCCCOC(=O)C[N+](C)(C)C/C=C(/C)Cl`, for which the AC50 was 16.7 µM.

Regarding `Oc1ccccc1C(Nc1nccs1)c1ccc2cccnc2c1O` (stereo not given), the AC50 is 4.91 µM.

`CN(Cc1cccnc1)C(=O)c1cc(COc2ccc3ncccc3c2)on1`: the AC50 was 9.3 µM.

For `O=C(c1cccnc1)N(c1cc2sc(=O)oc2c2ccccc12)S(=O)(=O)c1ccccc1`, the AC50 is 15.5 µM.

As for `CC(C)N=c1cc2n(-c3ccc(Cl)cc3)c3ccccc3nc-2cc1Nc1ccc(Cl)cc1`, the AC50 is 6.69 µM.

Turning to `COC(=O)C1CCCCN1C(=O)c1cc(COc2cccc3cnccc23)on1` (stereo not given), the AC50 is 7.11 µM.

With `Cc1oc2c(c1C(=O)N1CCOCC1)C(=O)c1ccccc1C2=O`, the AC50 is 8.12 µM.

As for `CC1CCC(C(C)C)C(OC(=O)Cn2c(-c3ccccc3)[n+](C)c3ccccc32)C1` (stereo not given), the AC50 was 2.76 µM and 3.37 µM.

Take `O=C(/C=C/c1ccc(F)cc1)NC(=S)NNC(=O)c1cnccn1`: the AC50 was 5.29 µM.

As to `CCC(=O)NC(c1cc(Cl)c2cccnc2c1O)C(C)C` (stereo not given), the AC50 was 7.3 µM.

On to `c1ccc2c(CN3CCCCCCC3)c[nH]c2c1`, for which the AC50 was 4.48 µM.

In the case of `CCc1ccc(S(=O)(=O)/N=C2/C=C(Sc3ncn[nH]3)C(=O)c3ccccc32)cc1`, the AC50 was 9.6 µM.

Take `CCCCCn1c(=O)c(C(=O)NCc2ccccc2Cl)c(O)c2ccccc21`: the AC50 was 6.84 µM.

Regarding `CCN(Cc1ccccc1)C(c1cccs1)c1nnnn1C1CCCCC1` (stereo not given), the AC50 was 13.4 µM.

Turning to `CCOC(=O)[C@@H]1[C@H]2COc3cc(OC)ccc3[C@H]2N2C(=O)N(c3ccc(C(F)(F)F)cc3)C(=O)[C@]12C`, the AC50 was 15 µM.

For `CC1CN(CC(O)COC(c2ccc(Cl)cc2)c2ccc(Cl)cc2)CC(C)O1` (stereo not given), the AC50 was 14.2 µM.

For `CCOC(=O)C1CCN(C(=O)c2c(C)oc3c2C(=O)c2ccccc2C3=O)CC1`, the AC50 is 17.4 µM.

As for `C=CCn1c(SCN2C(=O)c3ccccc3C2=O)nc2ccc(Cl)cc2c1=O`, the AC50 is 7.16 µM.

`CCCCCc1ccc(OCCCC[n+]2ccc(C)cc2)c(CCCCC)c1`: the AC50 was 2.34 µM.

Turning to `CCOC(=O)N1CCN(S(=O)(=O)c2ccc(C(=O)NNc3nc4c(C)cc(C)cc4s3)cc2)CC1`, the AC50 is 11.3 µM.

Consider `S=C(Nc1ccc(Nc2ccccc2)cc1)Nc1ccccn1`, for which the AC50 is 11.5 µM.

On to `Cc1ccc(C(=O)Nc2cccc3[nH]c(C(F)(F)F)nc23)cc1`, for which the AC50 was 13.3 µM.

Turning to `Cc1cc(C(=O)N/N=C/c2cc(Br)cc(Br)c2OC(=O)c2cccc(F)c2)n[nH]1`, the AC50 was 4.79 µM.

`O=C(Nc1nc2ccc([N+](=O)[O-])cc2s1)c1ccc(S(=O)(=O)N2CCCc3ccccc32)cc1`: the AC50 is 2.63 µM.

For `Cc1ccc(S(=O)(=O)Nc2ccccc2N(C)S(=O)(=O)c2ccc(C)cc2)cc1`, the concentration at half-maximal activity (AC50) is 15.6 µM.

Turning to `Cc1ccccc1N=Nc1ccc(O)c2ncccc12`, the half-maximal activity concentration (AC50) is 4.41 µM.

On to `Cc1ccc(C(=O)C[n+]2cc(-c3ccccc3)n3c2CCCCC3)cc1`, for which the AC50 is 6 µM.

Regarding `O=C1C(C2=NC(c3ccccn3)C3C(=O)N(c4ccc(OC(F)(F)F)cc4)C(=O)C23)=C(O)c2ccccc21` (stereo not given), the AC50 was 5.94 µM.

On to `CC1=[N+](C)c2ccc3ccccc3c2C1(C)C`, for which the AC50 is 14.6 µM.

With `COC(=O)[C@H](Cc1ccccc1)N(Cc1ccccc1)S(=O)(=O)N(Cc1ccccc1)[C@@H](Cc1ccccc1)C(=O)OC`, the AC50 is 4.38 µM.

For `Cc1cc(C(C)(C)C)cc(C)c1Cn1c2[n+](c3ccc(C(F)(F)F)cc31)CCCCC2`, the AC50 is 4.19 µM.

`NC1=NC[C@@H](CC2CCCCC2)N1CCc1cc(C(F)(F)F)cc(C(F)(F)F)c1`: the AC50 was 9.46 µM.

`CCCCCCC[n+]1ccc(-c2cc[n+](CCCCCCC)cc2)cc1`: the half-maximal activity concentration (AC50) is 3 µM.

In the case of `C[n+]1c2n(c3ccccc31)N=C(c1ccc(-c3ccccc3)cc1)CS2`, the AC50 is 1.74 µM.

As for `COc1ccc(/C=N/Nc2cc(C)nc(-n3nc(C)cc3C)n2)c(OC)c1`, the AC50 was 18.4 µM.

For the molecule `O=C(CNC(=O)c1ccccc1)N/N=C/c1cc(Br)ccc1O`, the AC50 is 15.2 µM.

With `CCN(CC)c1ccc(/C=N/NC(=O)c2nnn(-c3nonc3N)c2C(C)C)c(O)c1`, the AC50 was 1.16 µM.

Regarding `Cc1ccc(C(=O)N/C(=C\c2ccc(-c3ccc(Br)cc3)o2)C(=O)NCCCN(C)C)cc1`, the AC50 is 7.87 µM.

Consider `O=S(=O)(NCc1ccncc1)c1ccc(Br)s1`, for which the half-maximal activity concentration (AC50) was 4.25 µM.

With `C/C(=N/NC(=O)CN(c1ccccc1)S(=O)(=O)c1ccccc1)c1ccccc1O`, the AC50 was 10.2 µM.

As to `Nc1nc2ccccc2n1/N=C/c1ccc([N+](=O)[O-])s1`, the AC50 is 7.19 µM.

As for `CN(C)CCCNS(=O)(=O)c1ccc(NC2CCCCCC2)c([N+](=O)[O-])c1`, the AC50 is 7.27 µM.

For the molecule `CCCCC(CC)CN1C(=O)/C(=C/c2ccncc2)SC1=S` (stereo not given), the AC50 was > 26 µM (inactive).

On to `O=C(N/N=C/c1ccc(O)c2ncccc12)c1cccc(Br)c1`, for which the AC50 is 3.05 µM.

Turning to `CCS(=O)(=O)c1ccc(OC)c(N=Nc2ccc(O)c3ncccc23)c1`, the AC50 was 9.84 µM.

Take `Cc1ccc(C)c(S(=O)(=O)Nc2ccc(O)c3ccccc23)c1`: the AC50 is 14.1 µM.

`CCc1nc(N2CCN(C(C)=O)CC2)c2c3c(sc2n1)CC(C(C)(C)C)CC3` (stereo not given): the AC50 was 2.79 µM.

On to `CCCCCCCC(=O)Nc1ccc(C(=O)N/N=C/c2cccc([N+](=O)[O-])c2)cc1`, for which the half-maximal activity concentration (AC50) was 6.63 µM.

Consider `Cc1ccc(NC(=O)c2c(C(F)(F)F)nn(C)c2SCc2cccc(C(F)(F)F)c2)cc1C`, for which the AC50 was 11.8 µM.

Turning to `Cn1ncc2c(O/N=C(\N)c3ccc(C(C)(C)C)cc3)ncnc21`, the AC50 was 6.59 µM.

For the molecule `O=C(OCCOc1cccc(Cl)c1)c1cc(S(=O)(=O)N2CCCCC2)ccc1N1CCOCC1`, the concentration at half-maximal activity (AC50) was 7.78 µM.

Consider `O=S(=O)(c1ccc(F)c(F)c1F)N1CCN(c2ncnc3sccc23)CC1`, for which the AC50 was 7.17 µM.

For `CCc1ccc(C2=NNC(=Nc3cccc(S(=O)(=O)N(C)C)c3)SC2)cc1`, the AC50 was 3.66 µM.

For `COC(=O)c1ccc2[nH]c3cccc(/C(=C/c4ccccc4)c4ccccc4)c3c2c1`, the AC50 is 15.7 µM.

For `COc1cccc(/C=N/Nc2cc(N3CCOCC3)ncn2)c1O`, the AC50 is 14.2 µM.

For `COc1ccc2cc3[n+](cc2c1OC)CCc1cc2c(cc1-3)OCO2`, the half-maximal activity concentration (AC50) was 5.44 µM.

For the molecule `Cc1ccc(NC(=O)C2CCN(S(=O)(=O)c3ccc(N4CCCC4=O)cc3)CC2)cc1Cl`, the concentration at half-maximal activity (AC50) was 2.37 µM.

As for `COc1ccc(C(C(=O)NC2CCCCC2)N(C(=O)CCl)c2cccc(Cl)c2)cc1` (stereo not given), the AC50 was 7.03 µM.

On to `Cc1ccc(S(=O)(=O)Nc2ccccc2C(=O)Nc2nc(-c3ccc(F)cc3)cs2)cc1`, for which the AC50 was 2.92 µM.

On to `NNc1ncnc2scc(-c3ccc(Cl)cc3)c12`, for which the AC50 is 14.5 µM.

`COc1ccc(C(NC(C)=O)c2cc(Cl)c3cccnc3c2O)cc1OC` (stereo not given): the AC50 was 7.62 µM.

Take `Cc1cccnc1CN1CCN(C(=O)c2cc(COc3ccc4ncccc4c3)on2)CC1`: the AC50 is 5.44 µM.

Regarding `Cc1ccc(C(=O)NC2CCCc3c2cnn3-c2ccc(F)cc2F)cn1` (stereo not given), the half-maximal activity concentration (AC50) is 7.07 µM.

`C/C(=N\NC(=O)C(C)n1nc(C)c([N+](=O)[O-])c1C)c1ccccc1O` (stereo not given): the AC50 was 12.5 µM.

As to `O=C1C=C(N2CCOCC2)c2ccccc2C1=O`, the AC50 was 6.13 µM.

Take `CC(C)OCCCNc1ncnc2c1[nH]c1ccc(F)cc12`: the half-maximal activity concentration (AC50) is 2.46 µM.

As for `Cc1ccc2[nH]cc(/C=C/c3cc[n+](C)cc3)c2c1`, the AC50 is 5.46 µM.

As to `CN(C)S(=O)(=O)c1cccc(NC(=S)N/N=C/c2cc(Br)ccc2O)c1`, the AC50 is 2.72 µM.

As for `FC(F)Sc1ccc(N=C2NN=C(c3ccc4c(c3)OCCO4)CS2)cc1`, the AC50 was 2.9 µM.

For `O=[N+]([O-])c1ccc(N=Nc2c(Cl)cc(O)cc2Cl)cc1`, the AC50 is 2.08 µM.

`Cc1ccc2nc(-c3ccccn3)c(Nc3ccccc3C)n2c1`: the AC50 was 9.99 µM.

In the case of `C=C1C(=O)O[C@@H]2C[C@@H](C)[C@@H]3C=CC(=O)[C@@]3(C)[C@@H](OC(C)=O)[C@H]12`, the AC50 was 2.21 µM.
